# Patent US20240166643A1, “IMIDAZO[1,2-A]PYRIDINE COMPOUNDS AND THEIR USE IN THERAPY” (Imperial College Innovations Limited, priority 2020, published 2024)
# pEC50, pIC50: −log10 of the molar value.
# Experiments:
# EL4 cells = experiment: CellTiter-Blue assay, EL4; type: cell-based; details: EL4 cell line, 72 hours
# Description: (§1) Assay (d): CellTiter-Blue® Assay
# Cell suspensions were prepared by adjusting the cell density to the appropriate concentration (as stated in the Table 10 below) and 50 μL of the cell suspension was transferred to wells B-G in columns 2-11 of a 96-well plate.
# For each the BL-41, Ramos, Raji, A20 cell lines and EL4, twenty-four hours later, 50 μL of the growth media for the respective cell line (positive control), a mix of Puromycin and Staurosporine (negative controls, final concentration 10 μg/mL and 1 μM respectively) or different concentrations of each Example compound being tested (dilution factor=3, starting at μM, final concentration in the plate starting from 10 μM) were prepared and added to a well of the 96-well plate. The plate was incubated at 37° C. with 5% CO2 level.
# (§2) 72 hours later, 20 μl/well CellTiter-Blue® (G8081, Promega) were added to the plates according to the manufacturer's protocol, the plate was incubated at 37° C. for 2 or 3-4 h (A20, Ramos and Raji: 2 h; BL-41 and EL-4: 3-4 h), followed by measuring the absorbance per well at 570 nm using an EnVision plate reader. The negative control values were subtracted from every value. The metabolic activity was calculated as a percentage relative to the positive control. The EC50 values were calculated using GraphPad Prism.
# Raji cells = experiment: CellTiter-Blue assay, Raji; type: cell-based; details: Homo sapiens, Raji cell line, 72 hours
# Description: as §1
# (§3) BL-41, Ramos, Raji and A20 cells (obtained from Cell Services at the Crick Institute; cell type of BL-41, Ramos, Raji: Burkitt's Lymphoma; cell type of A20: murine B cell lymphoma cell line) were grown in RPMI-1640 media in 5% CO2 (supplemented with 10% FBS). The cells were seeded in 96-well plates, 24 h prior to treatment. Cell suspensions were prepared by adjusting the cell density to the appropriate concentration (as stated in the Table 9 below) and 50 μL of the cell suspension was transferred to wells B-G in columns 2-11 of a 96-well plate. […]
# as §2, with “The negative control values were subtracted from every value.” left out
# Ramos cells = experiment: CellTiter-Blue assay, Ramos; type: cell-based; details: Homo sapiens, Ramos cell line, 72 hours
# Description: as §1, §3
# as §2, with “The negative control values were subtracted from every value.” left out
# DOHH-2 tumor cells = experiment: Mouse xenograft, subcutaneous DOHH-2 Lymphoma Model; type: in vivo; details: compared to vehicle
# Description: Assay (i): Mouse Xenograft Protocol
# The in vivo efficacy was assess in a subcutaneous xenograft DOHH-2 Lymphoma Model using Female 6-8 week old CB17/SCID Mice. […] The test compound administration started once the mean tumor size reached approximately 100-150 mm3. Compounds were administered either IP (vehicle 58% Na2HPO4 buffer (10 mM) (pH4.5)+40% PEG400+2% DMSO) or orally (vehicle Na2HPO4 buffer (10 mM) (pH 4.5)+0.2% tween 80). Tumor volumes were measured in two dimensions using a caliper, and the volume expressed in mm3 using the formula: V=(L×W×W)/2, where V is tumor volume, L is tumor length (the longest tumor dimension) and W is tumor width (the longest tumor dimension perpendicular to L).
# Mice were dosed with Example 2 orally (50 mg/kg) once a day for 9 consecutive days (FIG. 5a), or Example 2 was dosed intraperitonally (25 mg/kg) in a cycle consisting of administration twice a day for three days followed by a four day no-dosing period (FIG. 5b). The cycle was repeated three times.
# Mice were dosed with Example 129 intraperitonally (25 mg/kg) in a cycle consisting of administration twice a day for three days followed by a four day no-dosing period (Figure Sc). The cycle was repeated three times.
# The protocol and any amendment(s) or procedures involving the care and use of animals in this study were reviewed and approved by the Institutional Animal Care and Use Committee (IACUC) of CrownBio prior to execution. During the study, the care and use of animals was conducted in accordance with the regulations of the Association for Assessment and Accreditation of Laboratory Animal Care (AAALAC).
# [1] = system: Plasmodium falciparum 3D7; experiment: SYBR Green assay, Plasmodium falciparum strain 3D7; type: cell-based; details: P. falciparum strain 3D7, 96 h incubation, read-out: Pf EC50 strain 3D7
# Human NMT1 (HsNMT1) = Human NMT1 (HsNMT1) (Homo sapiens, UniProt P30419); experiment: biochemical
# [2] = target: Plasmodium vivax (Pv) NMT (Plasmodium vivax (strain Salvador I), UniProt A5K1A2); experiment: biochemical
# in vitro = details: male, Sprague-Dawley, rat, pooled cryopreserved rat hepatocytes, pH 7.4
# [3] = Rat clearance and bioavailability (iv and oral dosing); type: in vivo; details: male, Sprague-Dawley, plasma, administered as a single compound
# SU-DHL-10 cells = experiment: Cell cytotoxicity in SU-DHL-10 cell line (CellTiter-Glo); type: cell-based; details: Homo sapiens, SU-DHL10; CellTiter-Glo, 48 h; read-out: SU-DHL-10 EC50
# A20 cells = experiment: CellTiter-Blue assay, A20; type: cell-based, murine; details: Mus musculus, A20 cell line, 72 hours
# Description: as §1, §3
# as §2, with “The negative control values were subtracted from every value.” left out
# BL-41 cells [4] = experiment: Metabolic activity assay (MTS assay) in BL-41 cell line; type: cell-based; details: Homo sapiens, 72 h
# BL-41 cells [5] = experiment: CellTiter-Blue assay, BL-41; type: cell-based; details: Homo sapiens, BL41 cell line, 72 hours
# Description: as §1, §3
# as §2, with “The negative control values were subtracted from every value.” left out
# [6] = target: Plasmodium falciparum NMT (Plasmodium falciparum (isolate 3D7), UniProt Q8ILW6); details: cited from earlier work
# Human NMT1 (HsNMT1), sequence (P30419 whole entry, looked up): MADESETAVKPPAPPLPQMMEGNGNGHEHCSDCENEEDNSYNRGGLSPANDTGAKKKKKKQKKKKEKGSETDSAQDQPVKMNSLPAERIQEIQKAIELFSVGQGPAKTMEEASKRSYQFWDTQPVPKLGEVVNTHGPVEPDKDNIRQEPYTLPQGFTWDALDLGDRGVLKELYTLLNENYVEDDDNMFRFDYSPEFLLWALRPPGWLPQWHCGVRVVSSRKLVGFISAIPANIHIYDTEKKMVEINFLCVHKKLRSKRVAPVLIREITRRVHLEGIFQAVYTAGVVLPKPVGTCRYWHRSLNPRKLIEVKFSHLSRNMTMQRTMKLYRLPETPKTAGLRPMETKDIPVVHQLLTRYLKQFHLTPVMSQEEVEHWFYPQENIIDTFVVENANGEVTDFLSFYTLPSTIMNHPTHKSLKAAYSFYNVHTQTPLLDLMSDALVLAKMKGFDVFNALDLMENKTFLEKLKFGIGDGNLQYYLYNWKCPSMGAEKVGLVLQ
# Plasmodium vivax (Pv) NMT, sequence (A5K1A2 1-410): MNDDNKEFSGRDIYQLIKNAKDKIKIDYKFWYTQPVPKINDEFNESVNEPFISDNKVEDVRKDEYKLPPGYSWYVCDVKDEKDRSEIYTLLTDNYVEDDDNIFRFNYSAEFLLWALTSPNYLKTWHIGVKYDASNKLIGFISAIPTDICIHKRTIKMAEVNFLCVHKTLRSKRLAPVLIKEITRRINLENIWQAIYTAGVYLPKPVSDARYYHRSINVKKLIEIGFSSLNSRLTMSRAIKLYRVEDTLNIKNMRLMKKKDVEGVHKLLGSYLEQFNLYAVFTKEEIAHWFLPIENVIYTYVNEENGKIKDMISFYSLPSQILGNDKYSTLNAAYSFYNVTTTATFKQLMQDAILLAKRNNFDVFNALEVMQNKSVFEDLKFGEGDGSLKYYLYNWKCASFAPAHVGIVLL
Structure (SMILES),pEC50 (EL4 cells),pEC50 (Raji cells),pEC50 (Ramos cells),"tumour volume (DOHH-2 tumor cells; intraperitoneally 25 mg/kg twice a day for three days then four day no-dosing, cycle repeated three times)",tumour volume (DOHH-2 tumor cells; orally 50 mg/kg once a day for 9 consecutive days),pEC50 [1],pIC50 (Human NMT1 (HsNMT1)),pIC50 [2],half-life at 1 µM (in vitro) [h],"half-life ([3]; iv 1 mg/kg, read-out: Rat iv t1/2 (converted)) [h]",bioavailability ([3]; oral 10 mg/kg) [%],pEC50 (SU-DHL-10 cells),pEC50 (A20 cells),pEC50 (BL-41 cells [4]),pEC50 (BL-41 cells [5]),selective activity for Plasmodium falciparum NMT over both human NMTs [6]
"C[C@H]1CN(C)CCN1c1ncc(Cl)c(N2CC(C(=O)NC(C)(C)c3cnc4ccccn34)C2)n1 [Example 2, 1-(5-chloro-2-[(2S)-2,4-dimethylpiperazin-1-yl]pyrimidin-4-yl)-N-(2-{imidazo[1,2-a]pyridin-3-yl}propan-2-yl)azetidine-3-carboxamide]",6.86,6.25,6.66,significant reduction in tumour volume,significant reduction in tumour volume,8.62,8.57,8.39,1.52,3.5,28,7.29,6.22,6.66,6.25,–
"Cc1cnc(CNC(=O)C2CN(c3nc(NCCN(C)C)ncc3Cl)C2)cn1 [PF-03531814, 1-(5-chloro-2-{[2-(dimethylamino)ethyl]amino}pyrimidin-4-yl)-N-[(5-methylpyrazin-2-yl)methyl]azetidine-3-carboxamide]",–,–,–,–,–,–,–,–,–,–,–,–,–,–,–,selective activity
